Results from ChEMBL document CHEMBL4507317, “Data for DCP probe BAY-899” (2021).

Legend:
[1] = test system: Tyrosine-protein kinase ABL1 (Homo sapiens), P00519 [E255K]; conditions: Compound concentration 1000.0 nM
[2] = test system: Tyrosine-protein kinase ABL1 (Homo sapiens), P00519 [Y253F]; conditions: Compound concentration 1000.0 nM
[3] = target: Activin receptor type-2B (Homo sapiens) (UniProt Q13705); conditions: Compound concentration 1000.0 nM
[4] = test system: ALK tyrosine kinase receptor (Homo sapiens), Q9UM73 [C1156Y]; conditions: Compound concentration 1000.0 nM
[5] = target: Aurora kinase C (Homo sapiens) (UniProt Q9UQB9); conditions: Compound concentration 1000.0 nM
[6] = target: Cyclin-dependent kinase 9 (Homo sapiens) (UniProt P50750); conditions: Compound concentration 1000.0 nM
[7] = target: Dual specificity protein kinase CLK3 (Homo sapiens) (UniProt P49761); conditions: Compound concentration 1000.0 nM
[8] = target: Macrophage colony-stimulating factor 1 receptor (Homo sapiens) (UniProt P07333); conditions: Compound concentration 1000.0 nM
[9] = target: Casein kinase I isoform gamma-2 (Homo sapiens) (UniProt P78368); conditions: Compound concentration 1000.0 nM
[10] = target: Serine/threonine-protein kinase DCLK2 (Homo sapiens) (UniProt Q8N568); conditions: Compound concentration 1000.0 nM
[11] = test system: Epidermal growth factor receptor (Homo sapiens), P00533 [G719S]; conditions: Compound concentration 1000.0 nM
[12] = test system: Epidermal growth factor receptor (Homo sapiens), P00533 [L858R,T790M]; conditions: Compound concentration 1000.0 nM
[13] = target: Ephrin type-A receptor 7 (Homo sapiens) (UniProt Q15375); conditions: Compound concentration 1000.0 nM
[14] = target: Receptor tyrosine-protein kinase erbB-2 (Homo sapiens) (UniProt P04626); conditions: Compound concentration 1000.0 nM
[15] = test system: Receptor-type tyrosine-protein kinase FLT3 (Homo sapiens), P36888 [N841I]; conditions: Compound concentration 1000.0 nM
[16] = target: Rhodopsin kinase GRK7 (Homo sapiens) (UniProt Q8WTQ7); conditions: Compound concentration 1000.0 nM
[17] = target: Glycogen synthase kinase-3 alpha (Homo sapiens) (UniProt P49840); conditions: Compound concentration 1000.0 nM
[18] = target: Mast/stem cell growth factor receptor Kit (Homo sapiens) (UniProt P10721); conditions: Compound concentration 1000.0 nM
[19] = test system: Mast/stem cell growth factor receptor Kit (Homo sapiens), P10721 [D816H]; conditions: Compound concentration 1000.0 nM
[20] = target: Tyrosine-protein kinase Lck (Homo sapiens) (UniProt P06239); conditions: Compound concentration 1000.0 nM
[21] = target: LIM domain kinase 1 (Homo sapiens) (UniProt P53667); conditions: Compound concentration 1000.0 nM
[22] = target: LIM domain kinase 2 (Homo sapiens) (UniProt P53671); conditions: Compound concentration 1000.0 nM
[23] = target: Mitogen-activated protein kinase kinase kinase 11 (Homo sapiens) (UniProt Q16584); conditions: Compound concentration 1000.0 nM
[24] = target: Serine/threonine-protein kinase 26 (Homo sapiens) (UniProt Q9P289); conditions: Compound concentration 1000.0 nM
[25] = target: Serine/threonine-protein kinase Nek7 (Homo sapiens) (UniProt Q8TDX7); conditions: Compound concentration 1000.0 nM
[26] = target: Serine/threonine-protein kinase OSR1 (Homo sapiens) (UniProt O95747); conditions: Compound concentration 1000.0 nM
[27] = target: Mitogen-activated protein kinase 11 (Homo sapiens) (UniProt Q15759); conditions: Compound concentration 1000.0 nM
[28] = target: Platelet-derived growth factor receptor alpha (Homo sapiens) (UniProt P16234); conditions: Compound concentration 1000.0 nM
[29] = target: Phosphorylase b kinase gamma catalytic chain, skeletal muscle/heart isoform (Homo sapiens) (UniProt Q16816); conditions: Compound concentration 1000.0 nM
[30] = target: Serine/threonine-protein kinase PLK4 (Homo sapiens) (UniProt O00444); conditions: Compound concentration 1000.0 nM
[31] = test system: Proto-oncogene tyrosine-protein kinase receptor Ret (Homo sapiens), P07949 [V804L]; conditions: Compound concentration 1000.0 nM
[32] = target: Ribosomal protein S6 kinase alpha-3 (Homo sapiens) (UniProt P51812); conditions: Compound concentration 1000.0 nM
[33] = target: Ribosomal protein S6 kinase alpha-6 (Homo sapiens) (UniProt Q9UK32); conditions: Compound concentration 1000.0 nM
[34] = target: Ribosomal protein S6 kinase alpha-6 (Homo sapiens) (UniProt Q9UK32); conditions: Compound concentration 1000.0 nM; remark: listed apart in the source
[35] = target: Ribosomal protein S6 kinase beta-1 (Homo sapiens) (UniProt P23443); conditions: Compound concentration 1000.0 nM
[36] = target: SRSF protein kinase 3 (Homo sapiens) (UniProt Q9UPE1); conditions: Compound concentration 1000.0 nM
[37] = target: Tyrosine-protein kinase receptor Tie-1 (Homo sapiens) (UniProt P35590); conditions: Compound concentration 1000.0 nM
[38] = target: 5-hydroxytryptamine receptor 2A (Homo sapiens, UniProt P28223); conditions: Compound concentration 10.0 uM
[39] = target: T1, Alpha-2A adrenergic receptor (Homo sapiens) (UniProt P08913); conditions: Compound concentration 10.0 uM
T1 sequence (whole entry): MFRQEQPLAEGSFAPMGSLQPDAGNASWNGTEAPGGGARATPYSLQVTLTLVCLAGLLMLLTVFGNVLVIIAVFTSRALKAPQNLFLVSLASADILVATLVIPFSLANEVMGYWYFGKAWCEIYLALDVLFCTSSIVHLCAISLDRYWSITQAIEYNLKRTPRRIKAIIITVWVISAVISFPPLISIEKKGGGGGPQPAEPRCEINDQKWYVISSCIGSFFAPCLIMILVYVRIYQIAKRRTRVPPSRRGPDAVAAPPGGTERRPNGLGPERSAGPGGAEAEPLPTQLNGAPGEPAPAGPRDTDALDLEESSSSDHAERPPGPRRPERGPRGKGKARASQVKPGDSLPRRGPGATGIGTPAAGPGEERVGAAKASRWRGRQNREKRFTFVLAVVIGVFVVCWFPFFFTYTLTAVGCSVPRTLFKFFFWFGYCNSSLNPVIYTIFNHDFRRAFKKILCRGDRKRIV

Chain of Ribosomal protein S6 kinase alpha-6 (Homo sapiens) (Q9UK32 whole entry): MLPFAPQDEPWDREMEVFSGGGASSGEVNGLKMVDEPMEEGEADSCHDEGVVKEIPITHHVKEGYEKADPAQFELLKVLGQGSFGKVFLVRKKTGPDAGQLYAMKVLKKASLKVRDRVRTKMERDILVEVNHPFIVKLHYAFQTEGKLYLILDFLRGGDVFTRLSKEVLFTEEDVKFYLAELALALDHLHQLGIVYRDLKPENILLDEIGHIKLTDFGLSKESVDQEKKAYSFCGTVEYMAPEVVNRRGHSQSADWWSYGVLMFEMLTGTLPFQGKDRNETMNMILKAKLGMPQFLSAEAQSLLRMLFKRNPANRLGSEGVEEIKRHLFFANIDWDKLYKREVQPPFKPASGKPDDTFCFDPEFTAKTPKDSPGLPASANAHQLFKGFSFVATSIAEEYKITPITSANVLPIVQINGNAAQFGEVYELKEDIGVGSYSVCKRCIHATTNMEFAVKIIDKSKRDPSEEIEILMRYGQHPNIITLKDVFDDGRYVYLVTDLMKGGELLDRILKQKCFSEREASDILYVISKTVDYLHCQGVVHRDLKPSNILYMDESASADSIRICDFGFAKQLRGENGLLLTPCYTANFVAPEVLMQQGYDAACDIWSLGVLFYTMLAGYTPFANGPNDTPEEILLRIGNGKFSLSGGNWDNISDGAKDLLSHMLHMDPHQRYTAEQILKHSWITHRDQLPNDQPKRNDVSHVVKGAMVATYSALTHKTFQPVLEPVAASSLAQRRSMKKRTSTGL
Chain of SRSF protein kinase 3 (Homo sapiens) (Q9UPE1 whole entry): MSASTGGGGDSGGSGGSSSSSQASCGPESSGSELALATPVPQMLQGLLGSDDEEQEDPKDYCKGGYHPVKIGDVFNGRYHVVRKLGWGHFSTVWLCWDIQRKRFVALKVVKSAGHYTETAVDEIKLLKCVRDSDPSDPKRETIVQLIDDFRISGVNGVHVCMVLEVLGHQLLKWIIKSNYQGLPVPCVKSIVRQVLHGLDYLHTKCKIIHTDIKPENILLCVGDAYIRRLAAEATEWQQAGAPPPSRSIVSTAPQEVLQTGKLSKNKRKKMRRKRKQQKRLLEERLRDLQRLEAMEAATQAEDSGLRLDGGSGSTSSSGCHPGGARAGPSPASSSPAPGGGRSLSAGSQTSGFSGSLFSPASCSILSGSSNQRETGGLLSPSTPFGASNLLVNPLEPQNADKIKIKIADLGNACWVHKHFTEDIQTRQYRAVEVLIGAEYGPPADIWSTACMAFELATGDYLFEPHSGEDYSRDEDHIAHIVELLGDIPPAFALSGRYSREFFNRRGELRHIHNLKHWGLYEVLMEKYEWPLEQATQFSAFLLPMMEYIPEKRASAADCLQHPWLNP
Chain of Phosphorylase b kinase gamma catalytic chain, skeletal muscle/heart isoform (Homo sapiens) (Q16816 whole entry, looked up, canonical isoform): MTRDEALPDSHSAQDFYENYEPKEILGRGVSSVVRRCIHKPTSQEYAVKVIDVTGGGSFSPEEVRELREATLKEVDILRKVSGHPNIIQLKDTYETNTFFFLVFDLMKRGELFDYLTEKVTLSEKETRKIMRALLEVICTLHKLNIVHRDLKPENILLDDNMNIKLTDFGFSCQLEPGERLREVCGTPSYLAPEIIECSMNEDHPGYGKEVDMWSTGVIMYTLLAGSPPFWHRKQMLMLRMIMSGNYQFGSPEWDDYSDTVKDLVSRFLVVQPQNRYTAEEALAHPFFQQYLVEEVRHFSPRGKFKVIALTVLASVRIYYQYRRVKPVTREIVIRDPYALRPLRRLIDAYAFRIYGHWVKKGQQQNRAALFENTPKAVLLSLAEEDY
Chain of Cyclin-dependent kinase 9 (Homo sapiens) (P50750 whole entry): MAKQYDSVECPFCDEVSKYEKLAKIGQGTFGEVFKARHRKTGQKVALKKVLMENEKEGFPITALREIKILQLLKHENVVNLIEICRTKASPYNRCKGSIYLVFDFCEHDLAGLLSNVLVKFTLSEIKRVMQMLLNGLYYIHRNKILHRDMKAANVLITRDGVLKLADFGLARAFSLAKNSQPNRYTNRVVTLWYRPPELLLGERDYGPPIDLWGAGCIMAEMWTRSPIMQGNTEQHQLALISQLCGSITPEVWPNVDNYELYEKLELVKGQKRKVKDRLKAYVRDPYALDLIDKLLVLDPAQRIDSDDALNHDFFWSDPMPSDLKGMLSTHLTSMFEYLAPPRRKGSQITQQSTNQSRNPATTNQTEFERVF
Chain of Proto-oncogene tyrosine-protein kinase receptor Ret (Homo sapiens), P07949 [V804L] (P07949 whole entry V804L): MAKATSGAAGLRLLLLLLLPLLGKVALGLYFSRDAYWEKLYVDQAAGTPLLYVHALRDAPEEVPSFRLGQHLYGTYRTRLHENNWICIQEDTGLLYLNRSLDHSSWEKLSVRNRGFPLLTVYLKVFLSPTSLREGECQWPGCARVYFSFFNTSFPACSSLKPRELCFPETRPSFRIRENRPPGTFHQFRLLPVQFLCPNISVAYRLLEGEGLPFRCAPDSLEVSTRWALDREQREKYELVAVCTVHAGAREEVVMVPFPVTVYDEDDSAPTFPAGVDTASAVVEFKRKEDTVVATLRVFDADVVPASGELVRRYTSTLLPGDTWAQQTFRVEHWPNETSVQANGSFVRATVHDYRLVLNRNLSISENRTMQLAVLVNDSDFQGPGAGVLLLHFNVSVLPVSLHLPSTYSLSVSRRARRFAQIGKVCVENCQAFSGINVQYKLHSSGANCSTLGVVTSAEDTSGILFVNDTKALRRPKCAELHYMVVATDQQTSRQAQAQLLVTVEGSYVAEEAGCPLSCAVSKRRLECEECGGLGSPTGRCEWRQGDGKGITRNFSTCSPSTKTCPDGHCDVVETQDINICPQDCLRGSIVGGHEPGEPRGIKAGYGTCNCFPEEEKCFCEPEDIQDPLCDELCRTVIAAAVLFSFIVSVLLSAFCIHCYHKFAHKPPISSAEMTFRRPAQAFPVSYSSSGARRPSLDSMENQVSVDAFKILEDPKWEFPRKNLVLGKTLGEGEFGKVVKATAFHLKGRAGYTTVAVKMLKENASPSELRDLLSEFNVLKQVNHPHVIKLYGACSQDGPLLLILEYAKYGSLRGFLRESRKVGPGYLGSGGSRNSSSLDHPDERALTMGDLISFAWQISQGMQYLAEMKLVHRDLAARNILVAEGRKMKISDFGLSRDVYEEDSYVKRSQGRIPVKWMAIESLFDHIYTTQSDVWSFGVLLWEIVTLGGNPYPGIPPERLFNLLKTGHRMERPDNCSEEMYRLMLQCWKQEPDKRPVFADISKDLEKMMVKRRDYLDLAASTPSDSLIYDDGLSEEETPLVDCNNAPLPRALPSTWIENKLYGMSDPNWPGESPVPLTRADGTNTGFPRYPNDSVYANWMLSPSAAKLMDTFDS
Chain of Ribosomal protein S6 kinase alpha-3 (Homo sapiens) (P51812 whole entry): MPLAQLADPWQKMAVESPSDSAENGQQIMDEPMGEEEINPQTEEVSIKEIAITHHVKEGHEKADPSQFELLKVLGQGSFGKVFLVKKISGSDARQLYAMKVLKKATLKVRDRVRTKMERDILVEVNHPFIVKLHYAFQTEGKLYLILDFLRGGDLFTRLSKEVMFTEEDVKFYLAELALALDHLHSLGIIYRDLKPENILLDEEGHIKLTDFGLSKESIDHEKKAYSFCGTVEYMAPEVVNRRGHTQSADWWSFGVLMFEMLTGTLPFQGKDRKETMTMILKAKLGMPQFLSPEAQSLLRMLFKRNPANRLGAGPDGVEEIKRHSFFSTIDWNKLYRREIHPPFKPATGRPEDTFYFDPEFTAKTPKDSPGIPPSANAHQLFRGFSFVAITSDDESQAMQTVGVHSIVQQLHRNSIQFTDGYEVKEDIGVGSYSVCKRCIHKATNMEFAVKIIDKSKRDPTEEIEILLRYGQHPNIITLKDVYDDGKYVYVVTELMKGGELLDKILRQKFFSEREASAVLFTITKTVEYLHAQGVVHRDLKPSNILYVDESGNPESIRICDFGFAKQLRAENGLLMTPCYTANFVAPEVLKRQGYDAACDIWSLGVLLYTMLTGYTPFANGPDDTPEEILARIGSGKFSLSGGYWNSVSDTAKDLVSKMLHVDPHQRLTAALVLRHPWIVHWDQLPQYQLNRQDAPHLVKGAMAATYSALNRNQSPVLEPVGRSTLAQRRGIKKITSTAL
Chain of 5-hydroxytryptamine receptor 2A (P28223 whole entry): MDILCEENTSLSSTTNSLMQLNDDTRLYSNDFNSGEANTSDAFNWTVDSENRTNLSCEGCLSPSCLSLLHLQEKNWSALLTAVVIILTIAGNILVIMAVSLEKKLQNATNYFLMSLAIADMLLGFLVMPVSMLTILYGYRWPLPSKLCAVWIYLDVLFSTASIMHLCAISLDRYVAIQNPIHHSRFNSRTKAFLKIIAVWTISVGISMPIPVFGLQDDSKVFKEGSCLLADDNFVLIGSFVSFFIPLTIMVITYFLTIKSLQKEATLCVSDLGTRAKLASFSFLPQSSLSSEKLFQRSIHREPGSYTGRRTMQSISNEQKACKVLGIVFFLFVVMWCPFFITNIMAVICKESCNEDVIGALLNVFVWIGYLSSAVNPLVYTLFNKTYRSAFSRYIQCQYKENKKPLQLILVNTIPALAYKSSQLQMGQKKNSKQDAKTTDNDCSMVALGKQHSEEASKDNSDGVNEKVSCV
Chain of Serine/threonine-protein kinase OSR1 (Homo sapiens) (O95747 2-527 limits assumed): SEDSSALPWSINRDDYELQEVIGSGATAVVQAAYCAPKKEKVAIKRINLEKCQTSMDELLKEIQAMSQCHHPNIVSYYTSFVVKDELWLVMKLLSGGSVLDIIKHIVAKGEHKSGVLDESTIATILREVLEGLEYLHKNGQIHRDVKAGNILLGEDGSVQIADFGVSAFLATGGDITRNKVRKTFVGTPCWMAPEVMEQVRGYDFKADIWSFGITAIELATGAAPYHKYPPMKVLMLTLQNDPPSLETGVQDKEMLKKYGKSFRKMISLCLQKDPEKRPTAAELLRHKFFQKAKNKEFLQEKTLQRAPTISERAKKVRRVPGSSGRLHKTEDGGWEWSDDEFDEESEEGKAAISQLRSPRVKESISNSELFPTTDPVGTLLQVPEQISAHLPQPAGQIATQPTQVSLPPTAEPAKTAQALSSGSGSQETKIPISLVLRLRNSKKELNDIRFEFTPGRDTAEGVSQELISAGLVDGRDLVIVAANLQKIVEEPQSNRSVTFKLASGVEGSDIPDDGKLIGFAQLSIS

Row | Compound | residual activity [1] | residual activity [2] | residual activity [3] | residual activity [4] | residual activity [5] | residual activity [6] | residual activity [7] | residual activity [8] | residual activity [9] | residual activity [10] | residual activity [11] | residual activity [12] | residual activity [13] | residual activity [14] | residual activity [15] | residual activity [16] | residual activity [17] | residual activity [18] | residual activity [19] | residual activity [20] | other results
1 | O=C(Nc1ccc(Oc2ccc(F)cc2)cc1)N1CCc2ncccc2[C@H]1c1ccc(F)cc1 [BAY-897] | 100% | 82% | 100% | 93% | 87% | 87% | 82% | 90% | 98% | 87% | 74% | 71% | 90% | 100% | 93% | 100% | 95% | 97% | 89% | 94% | residual activity [21]: 85%; residual activity [22]: 93%; residual activity [23]: 78%; residual activity [24]: 100%; residual activity [25]: 82%; residual activity [26]: 90%; residual activity [27]: 100%; residual activity [28]: 95%; residual activity [29]: 100%; residual activity [30]: 94%; residual activity [31]: 95%; residual activity [32]: 97%; residual activity [33]: 91%; residual activity [34]: 95%; residual activity [35]: 100%; residual activity [36]: 100%; residual activity [37]: 85%; inhibition [38]: 54.5%; inhibition [39]: 7.16%
2 | O=C(Nc1cnc(Oc2ccc(F)cc2)nc1)N1CCc2ncccc2[C@@H]1c1ccc(F)cc1 [BAY-899] | 100% | 100% | 85% | 90% | 81% | 93% | 88% | 78% | 96% | 90% | 72% | 70% | 88% | 80% | 88% | 100% | 93% | 100% | 96% | 83% | residual activity [21]: 99%; residual activity [22]: 97%; residual activity [23]: 83%; residual activity [24]: 90%; residual activity [25]: 84%; residual activity [26]: 93%; residual activity [27]: 84%; residual activity [28]: 93%; residual activity [29]: 100%; residual activity [30]: 100%; residual activity [31]: 86%; residual activity [32]: 91%; residual activity [33]: 100%; residual activity [34]: 82%; residual activity [35]: 89%; residual activity [36]: 100%; residual activity [37]: 88%; inhibition [38]: 8.72%; inhibition [39]: 9.77%
